Blank lines part the entries; values can stand above or below the compound they belong to. Non-standard residues stand in square brackets, D forms with d. Residues, ends and D or L forms follow the SMILES beside them. 4Abz = Nc1ccc(C(=O)O)cc1
Experiments:
Assay type in all cases: biochemical
carboxypeptidase A [1] = assay: Spectrophotometric CP-A activity determination (hippuricase, benzoate hydroxylase, decrease of NADPH/NADH absorbance at 340 nm)
Procedure: […] of serum (the same as used in Example 6) was added to 0.5 ml of a test reagent solution (pH 8.0) containing 10 mM p-hydroxybenzoylglycyl-L-tyrosine, 3000 U/1 hippuricase, 0.2 mM NADPH, 10000 U/1 p-hydroxybenzoate hydroxylase and 100 mM boric acid.
The decrease in the absorbance by the solution was measured at 340 nm of light at a temperature of 37°C during the course of the reaction. There was used for the measurement a reaction rate analyser in which the reaction time was five minutes. The activity value (mU/ml) of CP-A was automatically printed out in the analyser.
The calculation of activity was performed according to the following formula: [formula] wherein ε = 6.22 x 10^3 (Molecular extinction coefficient of NADPH)
The activity of CP-A was determined by repeating the procedure shown in Example 8 except that o-hydroxybenzoyl-L-isoleucyl-L-phenylalanine was used instead of p-hydroxybenzoylglycyl-L-tyrosine, salicylate hydroxylase was used instead of p-hydroxybenzoate hydroxylase, and nicotinamide adenine dinucleotide in reduced form (NADH) was used instead of NADPH.
The activity of CP-A was determined by repeating the procedure shown in Example 8 with a mixture prepared by adding 0.05 ml of serum (the same as used in Example 6) to 0.5 ml of a test reagent solution (pH 8.0) containing 30 mM p-methoxybenzoyl-L-leucyl-L-phenylalanine, 1000 U/1 hippuricase, 0.2 mM NADH, 20000 U/1 p-methoxybenzoate hydroxylase and 100 mM phosphoric acid.

carboxypeptidase A [2] = assay: Colourimetric CP-A activity determination (hippuricase, 4-aminoantipyrine, periodate, quinonimine dye at 505 nm); settings: serum containing carboxypeptidase A; 10 mM substrate, pH 7.8, 37°C, 20 minutes; test repeated 20 times, CV 3.4%
Procedure: 0.1 ml of serum containing carboxypeptidase A was added to 0.5 ml of a test reagent solution of pH 7.8 containing 10 mM p-hydroxybenzoyl-L-alanyl-L-phenylalanine, 0.1 M sodium chloride, 3000 U/1 hippuricase, 2.5 mM 4-aminoantipyrine and 100 mM N-2-hydroxyethyl piperazine-N-2-ethane sulphonic acid. The mixture was incubated at 37°C for 20 minutes. 1.5 ml of a reaction termination solution containing 6.5 mM sodium periodate was added to this reaction mixture. The mixture obtained was incubated at 37°C for five minutes, so that quinonimine dye was formed. The absorbance of the reaction mixture was measured at a light wavelength of 505 nm. This absorbance is referred to as Absorbance A.
Separately, for a blank (comparison) test, in the procedure as mentioned above, 1.5 ml of a reaction termination solution containing 6.5 mM sodium […] was added to the test reagent solution before 0.1 ml of serum containing carboxypeptidase A was added to the test reagent solution. The absorbance of the blank test reagent was then measured in the same manner as described above, at a light wavelength of 505 nm. This absorbance is referred to as Absorbance B.
The activity value (mU/ml) of carboxypeptidase A can be calculated by the following equation: [formula] where ε = 12000 (Molecular extinction coefficient or guinon- imine dye)

carboxypeptidase A [3] = assay: Colourimetric CP-A activity determination (hippuricase, NaNO2 diazotisation, azo dye at 505 nm); settings: same serum as Example 6; 20 mM substrate, pH 8.0, 37°C, 20 minutes; repeated 20 times, CV 5.3%
Procedure: 0.05 ml of serum (the same as used in Example 6) containing CP-A was added to 0.5 ml of a test reagent solution (pH 8.0) containing 20 mM p-aminobenzoyl-L-alanyl-L-tyrosine, 0.5 M NaCl, 3000 U/1 hippuricase and 100 mM boric acid. After this mixture had been allowed to stand at 37°C for 20 minutes, 0.5 ml of a solution containing 2 mM NaN02 and 1 mM NaOH was added to the mixture, and the mixture was allowed to stand at room temperature for 10 minutes. 0.5 ml of a reagent solution containing 1 mM potassium l-naphthol-2-sulphate, 50 mM boric acid and 200 mM NaOH was added to the mixture. The absorbance by the solution was measured at 505 nm of light. This absorbance is referred to as Absorbance A.
Absorbance B was measured by repeating the procedure as shown above but using 0.05 ml of an aqueous solution containing 10 uM p-aminobenzoic acid instead of 0.05 ml of serum, and Absorbance C was measured by repeating the procedure as shown above but using 0.05 ml of distilled water instead of 0.05 ml of serum.
The activity value (mU/ml) of CP-A can be calculated by the following equation: [formula]

Activity value (carboxypeptidase A [1]; procedure of Example 8 with salicylate hydroxylase and NADH, CV 7.0%): 1.1 mU/ml
Compound: CC[C@H](C)[C@H](NC(=O)c1ccccc1O)C(=O)N[C@@H](Cc1ccccc1)C(=O)O [o-hydroxybenzoyl-L-isoleucyl-L-phenylalanine]

Activity value (carboxypeptidase A [2]): 5.1 mU/ml
Compound: C[C@H](NC(=O)c1ccc(O)cc1)C(=O)N[C@@H](Cc1ccccc1)C(=O)O [p-hydroxybenzoyl-L-alanyl-L-phenylalanine]

Activity value (carboxypeptidase A [1]; same serum as Example 6, 30 mM substrate, pH 8.0, 0.2 mM NADH, p-methoxybenzoate hydroxylase, 100 mM phosphoric acid, CV 4.7%): 2.5 mU/ml
Compound: COc1ccc(C(=O)N[C@@H](CC(C)C)C(=O)N[C@@H](Cc2ccccc2)C(=O)O)cc1 [p-methoxybenzoyl-L-leucyl-L-phenylalanine]

Further lines, the compound ahead of its results:

Compound: C[C@H](NC(=O)c1ccc(N)cc1)C(=O)N[C@@H](Cc1ccc(O)cc1)C(=O)O [p-aminobenzoyl-L-alanyl-L-tyrosine] (H-[4Abz]-Ala-Tyr-OH)
Activity value (carboxypeptidase A [3]): 1.7 mU/ml

Compound: O=C(CNC(=O)c1ccc(O)cc1)N[C@@H](Cc1ccc(O)cc1)C(=O)O [p-hydroxybenzoylglycyl-L-tyrosine]
Activity value (carboxypeptidase A [1]; same serum as Example 6, 10 mM substrate, pH 8.0, 37°C, 0.2 mM NADPH, p-hydroxybenzoate hydroxylase, repeated 20 times, CV 5.2%): 6.2 mU/ml

Source: EP0150227A1, “Dipeptide derivatives and their use in determining the activity of carboxypeptidase A” (FUJIREBIO KABUSHIKI KAISHA also trading as FUJIREBIO INC., priority 1983, dated 1985)
